Assay results published in patent US11707442B2, “Antibacterial and antifungal compounds” (The General Hospital Corporation, priority 2015, dated 2023).
Converted amounts (≈) assume the structure as drawn.

What was measured:
K. pneumonia WGLW2 = assay: MIC, broth microdilution; type: cell-based, Klebsiella pneumoniae; conditions: Klebsiella pneumoniae; K. pneumonia WGLW2; read-out: Minimum inhibitory concentration
Summary of the method: (§1)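 MIC by CLSI broth microdilution (M07-A8) in MH broth; E. aerogenes, K. pneumoniae and A. baumannii pre-grown in LB, E. faecium in BHI, at 37° C. Inoculum at initial OD600 0.03, incubated 18 hrs at 35° C., growth read as absorbance at 595 nm.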

human erythrocytes = assay: Human blood hemolysis; type: cell-based; conditions: increasing concentrations; result in words
Protocol: Human blood hemolysis. Hemolytic activity of retinoids on human erythrocytes was evaluated using a previously described method with modifications (Rajamuthiah, R. et al. A defensin from the model beetle Tribolium castaneum acts synergistically with telavancin and daptomycin against multidrug resistant Staphylococcus aureus. PLoS ONE 10, e0128576 (2015)). 10% human erythrocytes were purchased from Rockland Immunochemicals (Limerick, Pa., USA). The erythrocytes were diluted to 4% with PBS, and 100 μl was added to 100 μl of two-fold serial dilutions of compounds in PBS, 0.2% DMSO (negative control), or 2% Triton-X 100 (positive control) in a 96-well plate. The 96-well plate was incubated at 37° C. for 1 h and then centrifuged at 500×g for 5 min. 100 μl of the supernatant was transferred to a fresh 96-well plate, and absorbance of supernatants was measured at 540 nm. Percent hemolysis was calculated using the following equation: (A540 nm of compound treated sample—A540nm of 0.1% DMSO treated sample)/(A540 nm of 1% Triton X-100 treated sample—A540nm of 0.1% DMSO treated sample)×100. HC50 (concentration of a compound causing 50% hemolysis) was determined using SigmaPlot 10.0 (Systat Software Inc., San Jose, Calif., USA).
In a 96 well plate, 50 μl of 2% human erythrocytes suspended in PBS was added to 50 μl of compounds serially diluted in PBS and incubated at 37° C. for 1 hour. The plate was then centrifuged at 500 G for 5 minutes and 50 μl of the supernatant from each well of the assay plate was transferred to a fresh 96 well plate. Hemolysis was confirmed by both visual observation and measuring absorbance at 540 nm. Treatment was conducted in triplicate.
2% human erythrocytes were treated with two-fold serially diluted concentration of the retinoids for 1 h at 37° C. A sample treated with 1% Triton-X 100 was used as the control for 100% hemolysis. Results are shown as means±s.d.; n=3.

A. baumannii = assay: MIC, broth microdilution; type: cell-based, Acinetobacter baumannii; conditions: Acinetobacter baumannii, ATCC17978; A. baumannii ATCC 17978; read-out: Minimum inhibitory concentration
Summary of the method: as §1

S. aureus MW2 = type: cell-based, Staphylococcus aureus; conditions: for fold increase in resistance: mutations in graS, yjbH, and manA; for fold increased resistance of CD437-resistant mutants: presumptive CD437-resistant SP1/SP2 mutants
Protocol: Development of resistant mutants by serial passage was conducted as previously described (Friedman, L. et al. Genetic changes that correlate with reduced susceptibility to daptomycin in Staphylococcus aureus. Antimicrob. Agents Chemother. 2006, 50, 2137-2145). […] The extended gradient was created by 2-fold serial dilutions with cation-adjusted Muller-Hinton media (CaMH) from three different starting concentrations: 80, 96, and 128 μg/ml. […] After incubating the plate at 37° C. for 24 h, OD600 nm was measured by a spectrophotometer (SpectraMax M2, Molecular Devices). Bacterial growth was defined as OD600 nm≥0.1. Two μl of the bacterial culture at the highest drug concentration that permitted bacterial growth was diluted 1,000-fold in CaMH, and the diluted culture was used as inoculum for the next passage. The rest of the culture was stored in 16% glycerol at −80° C.
Sequencing of PCR products were conducted by GENEWIZ (South Plainfield, N.J., USA). The passage day when the mutations occurred was identified by colony PCR using three colonies from each glycerol freezer stock, followed by sequencing of the PCR products. The passage day when the susceptibility to the retinoids changed was identified by repeating MIC determinations using overnight cultures from three colonies from each glycerol freezer stock.

MRSA strain MW2 = assay: Checkerboard assay (combination); type: cell-based, Staphylococcus aureus; conditions: for Fractional inhibitory concentration index (FICI): MRSA strain MW2, synergy FICI ≤ 0.5
Protocol: Checkerboard assay (e.g., antibiotic synergy test): The antimicrobial or antifungal activity of a combination of a compound of present application with other agents was determined through a checkerboard assay. The checkerboard method for determining synergy of synthetic retinoids with conventional antibiotics can be conducted, for example, as previously described (See, e.g., Rajamuthiah, R. et al. A defensin from the model beetle Tribolium castaneum acts synergistically with telavancin and daptomycin against multidrug resistant Staphylococcus aureus. PLoS ONE 10, e0128576 (2015)) The compounds whose combinations were being tested were arrayed in serial concentrations, vertically for one compound and horizontally for the other compound in the same 96 well microplate. 2-fold serial dilutions of each retinoid were combined with 2-fold serial dilutions of each conventional antibiotic, which created an 8×8 matrix in a 96-well microtiter plate. The rest of the procedure involving addition of pathogen and measurement of growth was carried out as described for measurement of MIC.
The Fractional Inhibitory Concentration (FIC) index for two compounds, A and B, is defined by the following equation: FIC=((A/MIC^A)+(B/MIC^B)). MIC^A and NIC^B are MICs of compound A or B respectively. (A) is the lowest concentration of compound A in combination with compound B that inhibits growth of a pathogen and (B) is the lowest concentration of compound B that inhibits growth of a pathogen.
Optical densities at 600 nm were measured after 18 h of incubation at 37° C. The results represent three independent experiments.

[1] = Giant unilamellar vesicles (GUVs) disruption; conditions: DOPC/DOPG 7:3; 1× and 10×MIC; result in words
hERG potassium channel = target: T1, hERG potassium channel (Homo sapiens, UniProt Q12809); assay: hERG potassium channel inhibition (IonWorks HT, CHO cells); type: cell-based; conditions: at 25 μM
T1 construct: host or cells: Chinese hamster ovary (CHO) cells
T1 sequence (Q12809 whole entry): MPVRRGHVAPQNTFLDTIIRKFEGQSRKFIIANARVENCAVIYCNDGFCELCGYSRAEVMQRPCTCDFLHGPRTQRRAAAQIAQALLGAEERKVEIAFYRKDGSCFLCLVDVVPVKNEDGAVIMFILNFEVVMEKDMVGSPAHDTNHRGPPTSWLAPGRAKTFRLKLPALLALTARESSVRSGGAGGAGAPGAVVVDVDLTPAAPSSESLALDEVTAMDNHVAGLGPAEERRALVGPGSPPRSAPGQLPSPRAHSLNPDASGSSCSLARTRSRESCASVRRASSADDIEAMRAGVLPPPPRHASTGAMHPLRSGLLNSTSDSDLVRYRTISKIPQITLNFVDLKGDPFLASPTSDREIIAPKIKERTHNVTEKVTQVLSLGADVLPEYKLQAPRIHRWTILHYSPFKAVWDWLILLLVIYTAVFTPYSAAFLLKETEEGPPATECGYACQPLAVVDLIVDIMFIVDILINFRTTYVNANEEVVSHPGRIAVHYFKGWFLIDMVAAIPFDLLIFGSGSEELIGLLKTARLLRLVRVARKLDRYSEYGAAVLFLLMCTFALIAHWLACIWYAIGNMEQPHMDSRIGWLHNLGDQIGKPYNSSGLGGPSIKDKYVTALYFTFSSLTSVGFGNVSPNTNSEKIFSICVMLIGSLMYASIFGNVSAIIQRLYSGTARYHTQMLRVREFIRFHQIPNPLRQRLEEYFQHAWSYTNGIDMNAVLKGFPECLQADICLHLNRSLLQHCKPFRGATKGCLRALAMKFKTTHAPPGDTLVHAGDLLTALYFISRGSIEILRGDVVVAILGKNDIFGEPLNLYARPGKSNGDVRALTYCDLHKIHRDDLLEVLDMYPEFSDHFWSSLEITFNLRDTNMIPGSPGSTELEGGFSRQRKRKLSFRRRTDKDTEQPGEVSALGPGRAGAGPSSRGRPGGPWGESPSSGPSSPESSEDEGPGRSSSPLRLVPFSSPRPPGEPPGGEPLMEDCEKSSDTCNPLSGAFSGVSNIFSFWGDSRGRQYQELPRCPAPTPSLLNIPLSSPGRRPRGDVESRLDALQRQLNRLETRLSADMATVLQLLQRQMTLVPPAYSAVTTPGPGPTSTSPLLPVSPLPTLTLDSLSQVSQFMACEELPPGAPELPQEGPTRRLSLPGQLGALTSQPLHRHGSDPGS
Protocol: Evaluation of human ether-a-go-go-related gene (hERG) potassium channel inhibition potential. […] Electrophysiology measurement was conducted using an IonWorks™ HT instrument (Molecular Devices Corporation, Sunnyvale, Calif., USA) and 384-well planar PatChPlate™ (Molecular Devices Corporation). Briefly, Chinese hamster ovary (CHO) cells expressing the hERG potassium channel were dispensed into 384-well planar arrays, and hERG tail currents were measured by whole-cell voltage clamping. A range of concentrations (0.008 μM to 25 μM) of each retinoid were then added to the cells, and a second recording of the hERG current was made. The percent change in the hERG current was calculated.

E. faecalis = assay: MIC, broth microdilution; type: cell-based, Enterococcus faecalis; conditions: for MIC: Enterococcus faecalis, E. faecalis, (range given for E. faecium and E. faecalis); for susceptibility of E. faecalis: result in words
Protocol: To test the bacterial MICs for compounds described herein, the total volume in each well was 100 μl of test compounds and bacterial cells in MH broth. Two-fold serial dilutions were carried out to get compounds in the concentration range 0.0625-64 μg/ml. The bacterial concentration was adjusted to an initial OD600 of 0.03. After incubation at 35° C. for 18 hrs, the absorbance was measured at 595 nm in accordance with CLSI document M07-A8. The MICs of antibiotics were determined by the standard microdilution method recommended by the Clinical and Laboratory Standards Institute.

[2] = in combination with Ciprofloxacin

SMILES	MIC (K. pneumonia WGLW2) [µg/mL]	toxicity (hemolysis) to erythrocytes (human erythrocytes)	MIC (A. baumannii) [µg/mL]	fold increase in resistance (S. aureus MW2) [fold]	fold increased resistance of CD437-resistant mutants (S. aureus MW2) [fold]	interaction with gentamicin (MRSA strain MW2; MRSA MW2, result in words)	Fractional inhibitory concentration index (FICI) (MRSA strain MW2; [2])	Fractional inhibitory concentration index (FICI) (MRSA strain MW2; in combination with Defensin 1)	Fractional inhibitory concentration index (FICI) (MRSA strain MW2; in combination with Gentamicin)	Fractional inhibitory concentration index (FICI) (MRSA strain MW2; in combination with Rifampicin)	Fractional inhibitory concentration index (FICI) (MRSA strain MW2; in combination with Vancomycin)	integrity of giant unilamellar vesicles (GUVs) [1]	inhibition of hERG potassium channels (hERG potassium channel)	MIC (E. faecalis) [µg/mL]	susceptibility of E. faecalis (E. faecalis)	interaction with defensin 1 (MRSA strain MW2; MRSA MW2, result in words)
O=C(O)/C=C/c1ccc(-c2ccc(O)c(C34CC5CC(CC(C5)C3)C4)c2)cc1 [Adarotene, (2E)-3-(4′-Hydroxy-3′-tricyclo[3.3.1.13,7]dec-1-yl[1,1′-biphenyl]-4-yl)-2-propenoic acid]	> 64	not toxic	> 64	1.5	2	significant synergistic antimicrobial activity	0.75	1	0.5	1	1.016	disrupt the integrity	did not inhibit	–	–	–
O=C(O)c1ccc2cc(-c3ccc(O)c(C45CC6CC(CC(C6)C4)C5)c3)ccc2c1 [CD437, 6-(4-hydroxy-3-tricyclo[3.3.1.13,7]dec-1-ylphenyl)-2-naphthalenecarboxylic acid]	> 64	–	> 64	–	–	significant synergistic antimicrobial activity	–	–	–	–	–	–	–	2 to 4 (≈ 5.02 to 10 µM)	susceptible	synergism
O=C(O)c1ccc(-c2ccc3cc(O)c(C45CC6CC(CC(C6)C4)C5)cc3c2)cc1 [CD1530, 4-(6-hydroxy-7-tricyclo[3.3.1.13,7]dec-1-yl-2-naphthalenyl)-benzoic acid]	> 64	not toxic	> 64	1.5	2	significant synergistic antimicrobial activity	0.75	1	0.5	0.75	1	disrupt the integrity	did not inhibit	2 to 4 (≈ 5.02 to 10 µM)	susceptible	–
